US20250120988A1, “SMALL MOLECULE COMPOUND FOR TREATING ISCHEMIC STROKE, ITS PREPARATION METHOD, AND APPLICATION” (SHANGHAI SIXTH PEOPLE'S HOSPITAL, priority 2023, published 2025)

Experiments:
primary cortical neurons [1] = test: LDH release from cultured neurons after OGD; format: cell-based, mice; details: 10 μM, OGD 1 hour, pH 7.0
Experimental: (§1) Figure a illustrates cortical neurons staining from wild-type (ASIC1a+/+) and gene-deficient (ASIC1a−/−) mice primary cultures in the calcein-PI staining experiment. Blue green represents viable cells, and red represents dead cell nuclei. 10 μM CGS19755 and 10 μM LK-2 were added respectively in the cell culture medium under pH 7.0 conditions with OGD to be treated for 1 hour. Figure c illustrates, after being treated in the same experimental groups as Figure a, the analysis of each group of LDH of relative release levels. Figure d illustrates PI staining of ASIC1a-transfected CHO cells after 1 hour of treatment with pH 7.0 and 500 μM glutamate (Glu). Green represents green fluorescent protein (GFP), indicating ASIC1a-expressing CHO cells (GFP+), and red represents dead cell nuclei. The concentration of LK-2 was 10 μM. GFP-indicates ASIC1a-untransfected cells. […]
The LDH assay kit (Biyuntian) was used to measure the release of LDH from cultured neurons after 1 hour of oxygen-glucose deprivation (OGD). […] The absorbance of the target was measured at 490 nm wavelength using a spectrophotometer (Thermo Scientific), while the background absorbance was measured at 620 nm wavelength. […]

primary cortical neurons [2] = test: Calcein-PI cell death staining of primary neurons under oxygen-glucose deprivation (OGD); format: cell-based, mice; details: 10 μM; primary cultured neurons; OGD 1 hour, pH 7.0
Experimental: as §1, with “(Glu).” for “(Glu). Green represents green fluorescent protein (GFP), indicating ASIC1a-expressing CHO cells (GFP+), and red represents dead cell nuclei. The concentration of LK-2 was 10 μM. GFP-indicates ASIC1a-untransfected cells.”
Taking into consideration that in addition to ASIC1a, neurons also express multiple membrane proteins that can be activated and lead to cell death during OGD, in order to more accurately verify that cell death is caused by glutamate activation of ASIC1a and that LK-2 indeed competitively antagonizes the glutamate so as to reduce cell death, we conducted the following experiment: CHO cells transfected with ASIC1a-GFP were divided into a control group (500 μM glutamate) and a drug intervention group (500 μM glutamate+10 μM LK-2). […] Live and dead cell nuclei were determined by observing under a 40× objective using excitation wavelengths of 488 nm and 546 nm. The number of stained cell nuclei was counted using Image-J software.

## O=C(O)C1CN(C(c2ccccc2)P(=O)(O)O)CCN1 (centres unmarked) [LK-2]
Primary cortical neurons [1]
  reduction of lactate dehydrogenase release: 50%
Primary cortical neurons [2]
  reduction of cell death rate: 87%
